Where two headings read alike, the source gives them in different places.
Assays:
[1] = tested on: HBV DNA in the supernatant of HepG2.2.15; assay: Determination of anti-HBV activity in HepG2.2.15 cell (HBV DNA in supernatant by qPCR); type: cell-based, Hepatitis B virus
[2] = Determination of cytotoxicity (HepG2 cells, resazurin assay, 4 days); type: cell-based; conditions: human, read-out: Experiment 3 Cytotoxicity CC50
Protocol: Experiment 3: Determination of Cytotoxicity
The cytotoxicity of the test compound was tested using HepG2 cells. The cells were incubated for 4 days in the presence of the test compound. Cell activity was assessed using the resazurin assay.

[3] = HepG2.2.15 cells, HBV DNA, read-out: Experiment 2 Cell experiment EC50
[4] = Hepatitis B virus, HepG2.2.15, HepG2.2.15 cells, HBV DNA, read-out: Experiment 2 Cell experiment EC50

SMILES | EC50 [1, 3] [µM] | CC50 at 4 days [2] [µM] | EC50 [1, 4] [µM] | EC50 ([1]; Hepatitis B virus, HepG2.2.15, read-out: Experiment 2 Cell experiment EC50) [µM]
CC(C)[C@H]1C=Cc2c(cn(C)c2C(=O)Nc2cc(F)nc(C#N)c2)S(=N)(=O)N1 (single isomer, unassigned) [Compound 10e1] | 0.1 to 1 | > 30 |  | 
CC(C)[C@@H]1C=Cc2c(cn(C)c2C(=O)Nc2ccc(F)c(C#N)c2)S(=N)(=O)N1 (single isomer, unassigned) [Compound 10h1] |  | > 30 | > 1 | 
Cn1cc2c(c1C(=O)Nc1ccc(F)c(F)c1)CC[C@H](CO)NS2(=N)=O (single isomer, unassigned) [Compound 40g1] |  | > 30 | 0.1 to 1 | 
CC(C)[C@@H]1C=Cc2c(cn(C)c2C(=O)Nc2ccc(F)c(F)c2)S(=N)(=O)N1 (single isomer, unassigned) [Compound 10g1] | 0.1 to 1 | > 30 |  | 
CC(C)C[C@H]1C=Cc2c(nn(C)c2C(=O)Nc2ccc(F)c(C#N)c2)S(=N)(=O)N1 (single isomer, unassigned) [Compound 70b1] | 0.1 to 1 | > 30 |  | 
CC(C)[C@H]1C=Cc2c(cn(C)c2C(=O)Nc2ccc(F)c(C#N)c2)S(=N)(=O)N1 (single isomer, unassigned) [Compound 10b1] |  | > 30 |  | 0.1 to 1
Cn1cc2c(c1C(=O)Nc1cc(F)nc(C#N)c1)CC[C@H](C1CCCCC1)NS2(=N)=O (single isomer, unassigned) [Compound 20dd1] | 0.1 to 1 | > 30 |  | 
CC(O)[C@H]1C=Cc2c(cn(C)c2C(=O)Nc2ccc(F)c(C#N)c2)S(=N)(=O)N1 (single isomer, unassigned) [Compound 30b1] |  | > 30 | 0.1 to 1 | 
CN=S1(=O)N[C@@H](C(C)C)CCc2c1nn(C)c2C(=O)Nc1ccc(F)c(C#N)c1 (single isomer, unassigned) [Compound 90a1] | 0.1 to 1 | > 30 |  | 
CC(C)[C@H]1CCc2c(cn(C)c2C(=O)Nc2cc(F)c(F)c(F)c2)S(=N)(=O)N1 (single isomer, unassigned) [Compound 20c1] | 0.1 to 1 | > 30 |  | 
CC(O)[C@H]1C=Cc2c(cn(C)c2C(=O)Nc2cc(F)c(F)c(F)c2)S(=N)(=O)N1 (single isomer, unassigned) [Compound 30c1] |  | > 30 | 0.1 to 1 | 
CCN=S1(=O)N[C@@H](CC(C)C)CCc2c1cn(C)c2C(=O)Nc1ccc(F)c(C#N)c1 (single isomer, unassigned) [Compound 60w1] | 0.1 to 1 | > 30 |  | 
CC(C)[C@H]1CCc2c(nn(C)c2C(=O)Nc2ccc(F)c(C#N)c2)S(=N)(=O)N1 (single isomer, unassigned) [Compound 80a1] | 0.1 to 1 | > 30 |  | 
Cn1cc2c(c1C(=O)Nc1ccc(F)c(F)c1)C=C[C@H](CO)NS2(=N)=O (single isomer, unassigned) [Compound 30g1] |  | > 30 | 0.1 to 1 | 
CC(O)[C@H]1CCc2c(cn(C)c2C(=O)Nc2ccc(F)c(F)c2)S(=N)(=O)N1 (single isomer, unassigned) [Compound 40a1] |  | > 30 | 0.1 to 1 | 
CN=S1(=O)N[C@@H](C(C)C)CCc2c1cn(C)c2C(=O)Nc1ccc(F)c(F)c1 (single isomer, unassigned) [Compound 60a1] | 0.1 to 1 | > 30 |  | 
CCN=S1(=O)N[C@@H](CC(C)C)C=Cc2c1cn(C)c2C(=O)Nc1ccc(F)c(C#N)c1 (single isomer, unassigned) [Compound 50t1] | 0.1 to 1 | > 30 |  | 
CN=S1(=O)N[C@@H](CC(C)C)CCc2c1nn(C)c2C(=O)Nc1ccc(F)c(C#N)c1 (single isomer, unassigned) [Compound 90b1] | 0.1 to 1 | > 30 |  | 
CC(C)C[C@H]1C=Cc2c(cn(C)c2C(=O)Nc2ccc(F)c(C#N)c2)S(=O)(=NC(C)C)N1 (single isomer, unassigned) [Compound 50u1] | 0.1 to 1 | > 30 |  | 
CC[C@H](C)[C@H]1C=Cc2c(cn(C)c2C(=O)Nc2ccc(F)c(F)c2)S(=N)(=O)N1 (single isomer, unassigned) [Compound 10n1] | 0.1 to 1 | > 30 |  | 
CC(C)C[C@H]1CCc2c(nn(C)c2C(=O)Nc2ccc(F)c(C#N)c2)S(=N)(=O)N1 (single isomer, unassigned) [Compound 80b1] | 0.1 to 1 | > 30 |  | 

SMILES | EC50 [1, 3] [µM] | CC50 at 4 days [2] [µM] | EC50 [1, 4] [µM] | EC50 ([1]; Hepatitis B virus, HepG2.2.15, read-out: Experiment 2 Cell experiment EC50) [µM]
Cn1cc2c(c1C(=O)Nc1ccc(F)c(F)c1)C=C[C@H](C1CCCCC1)NS2(=N)=O (single isomer, unassigned) [Compound 10bb1] | 0.1 to 1 | > 30 |  | 
Cn1cc2c(c1C(=O)Nc1ccc(F)c(C#N)c1)C=C[C@H](C1CCCCC1)NS2(=N)=O (single isomer, unassigned) [Compound 10cc1] | 0.1 to 1 | > 30 |  | 
CC(C)[C@H]1CCc2c(cn(C)c2C(=O)Nc2ccc(F)c(F)c2)S(=N)(=O)N1 (single isomer, unassigned) [Compound 20a1] | 0.1 to 1 | > 30 |  | 
C[C@@H](OCc1ccccc1)[C@H]1C=Cc2c(cn(C)c2C(=O)Nc2ccc(F)c(C#N)c2)S(=N)(=O)N1 (single isomer, unassigned) [Compound 10ccc1] | 0.1 to 1 | > 30 |  | 
CC(O)[C@H]1C=Cc2c(cn(C)c2C(=O)Nc2ccc(F)c(F)c2)S(=N)(=O)N1 (single isomer, unassigned) [Compound 30a1] |  | > 30 | 0.1 to 1 | 
CC[C@H](C)[C@H]1C=Cc2c(cn(C)c2C(=O)Nc2ccc(F)c(C#N)c2)S(=N)(=O)N1 (single isomer, unassigned) [Compound 10o1] | 0.1 to 1 | > 30 |  | 
CC(C)[C@H]1CCc2c(cn(C)c2C(=O)Nc2ccc(F)c(C#N)c2)S(=N)(=O)N1 (single isomer, unassigned) [Compound 20b1] | 0.1 to 1 | > 30 |  | 
CC(C)[C@H]1C=Cc2c(nn(C)c2C(=O)Nc2ccc(F)c(C#N)c2)S(=N)(=O)N1 (single isomer, unassigned) [Compound 70a1] | 0.1 to 1 | > 30 |  | 
CN=S1(=O)N[C@@H](C(C)C)C=Cc2c1cn(C)c2C(=O)Nc1ccc(F)c(F)c1 (single isomer, unassigned) [Compound 50a1] | 0.1 to 1 | > 30 |  | 
CC(C)C[C@H]1CCc2c(cn(C)c2C(=O)Nc2ccc(F)c(C#N)c2)S(=O)(=NC2CC2)N1 (single isomer, unassigned) [Compound 60y1] | 0.1 to 1 | > 30 |  | 
CC(C)C[C@H]1CCc2c(cn(C)c2C(=O)Nc2ccc(F)c(C#N)c2)S(=O)(=NC(C)C)N1 (single isomer, unassigned) [Compound 60x1] | 0.1 to 1 | > 30 |  | 
CCN=S1(=O)N[C@@H](C(C)C)CCc2c1cn(C)c2C(=O)Nc1ccc(F)c(C#N)c1 (single isomer, unassigned) [Compound 60g1] | 0.1 to 1 | > 30 |  | 
C[C@@H](OCc1ccccc1)[C@H]1C=Cc2c(cn(C)c2C(=O)Nc2cc(F)c(F)c(F)c2)S(=N)(=O)N1 (single isomer, unassigned) [Compound 10ddd1] | 0.1 to 1 | > 30 |  | 
COc1ccc(CC[C@H](C)[C@H]2C=Cc3c(cn(C)c3C(=O)Nc3cc(F)nc(C#N)c3)S(=N)(=O)N2)cc1 (single isomer, unassigned) [Compound 10vvv1] | 0.1 to 1 | > 30 |  | 
CC(C)[C@H]1C=Cc2c(cn(C)c2C(=O)Nc2cc(F)c(F)c(F)c2)S(=N)(=O)N1 (single isomer, unassigned) [Compound 10c1] | 0.1 to 1 | > 30 |  | 
CC(O)[C@H]1CCc2c(cn(C)c2C(=O)Nc2ccc(F)c(C#N)c2)S(=N)(=O)N1 (single isomer, unassigned) [Compound 40b1] |  | > 30 | 0.1 to 1 | 
CN=S1(=O)N[C@@H](CC(C)C)CCc2c1cn(C)c2C(=O)Nc1ccc(F)c(C#N)c1 (single isomer, unassigned) [Compound 60v1] | 0.1 to 1 | > 30 |  | 
CC(C)[C@H]1C=Cc2c(cn(C)c2C(=O)Nc2ccc(F)c(F)c2)S(=N)(=O)N1 (single isomer, unassigned) [Compound 10a1] | 0.1 to 1 | > 30 |  | 
COc1ccc(CC[C@H](C)[C@H]2CCc3c(cn(C)c3C(=O)Nc3cc(F)c(F)c(F)c3)S(=N)(=O)N2)cc1 (single isomer, unassigned) [Compound 20ttt1] | 0.1 to 1 | > 30 |  | 
C[C@@H](OCc1ccccc1)[C@H]1CCc2c(cn(C)c2C(=O)Nc2ccc(F)c(C#N)c2)S(=N)(=O)N1 (single isomer, unassigned) [Compound 20ccc1] |  | > 30 | 0.0001 to 0.1 | 
